This is an account of results in patent US12139520B2 (priority 2020, dated 2024).

SMILES strings stand for the structures. Bridge positions count the residues as written; N and C are the ends. Square brackets hold non-standard residues; d marks the D form. Peptide text beside a SMILES is read from it. Hyp = O=C(O)[C@@H]1C[C@@H](O)CN1

One data set has as its target T1, hAMY3 receptor (Homo sapiens, UniProt O60896+P30988).
T1 sequence (P30988 25-474): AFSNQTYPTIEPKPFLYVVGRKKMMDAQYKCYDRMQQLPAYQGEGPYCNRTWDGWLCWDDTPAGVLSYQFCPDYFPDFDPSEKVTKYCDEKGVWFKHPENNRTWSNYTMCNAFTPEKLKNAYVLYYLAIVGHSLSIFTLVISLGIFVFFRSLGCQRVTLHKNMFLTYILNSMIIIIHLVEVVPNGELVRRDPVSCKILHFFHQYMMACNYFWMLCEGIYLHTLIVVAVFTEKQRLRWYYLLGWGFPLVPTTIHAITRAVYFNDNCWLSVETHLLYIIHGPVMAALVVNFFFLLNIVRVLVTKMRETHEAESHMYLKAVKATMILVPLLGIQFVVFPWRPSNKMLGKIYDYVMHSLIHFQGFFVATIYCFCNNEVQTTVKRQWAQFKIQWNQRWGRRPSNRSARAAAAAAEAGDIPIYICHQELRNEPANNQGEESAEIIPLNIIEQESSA
T1 sequence (O60896 24-148 partner): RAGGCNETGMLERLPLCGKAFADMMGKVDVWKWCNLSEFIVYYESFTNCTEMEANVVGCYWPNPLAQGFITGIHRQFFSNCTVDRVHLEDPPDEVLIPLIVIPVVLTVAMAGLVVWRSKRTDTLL
Briefly: cAMP assay for in vitro receptor activation, hAMY3-R. Conditions: cAMP assay, hAMY3 receptor; read-out: hAMY3R EC50. In kind it is cell-based. An outline of the steps:
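Accumulated cAMP was detected by time-resolved FRET one hour after reagent addition. Beforehand, hAMY3-R-overexpressing monoclonal cells (2000/well, DPBS, 0.05% casein, 0.5 mM IBMX) received graded doses of compound for 30 min at room temperature; human amylin served as positive control.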

For a further data set, the target named is hAM1 receptor (Homo sapiens, UniProt O60895+Q16602). Kind of data set: cAMP assay for in vitro receptor activation, hAM1-R. In kind it is cell-based. To be noted: cAMP assay, hAM1 receptor; read-out: hAM1R EC50. The procedure, abridged:
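Monoclonal stable hAM1-overexpressing cells, thawed from frozen stock; 8000 cells/well in DPBS + 0.05% casein + 0.5 mM IBMX; read-out cAMP.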
A general note: Cyclic AMP is a second messenger, typically raised through Gs and lowered through Gi signalling.

A short description of data set [1]: Physical stability of peptide analogues (Thioflavin T fibrillation). In kind it is physicochemical. To be noted: maximum ThT signal normalized between hAMY maximum and buffer background; 40° C., shaking, four days; pH 7 per table title. An outline of the steps: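 Maximum ThT emission at 480 nm, after LOESS smoothing, is given as percent of the span from buffer background to hAMY. Conditions: 50 mM buffer at pH 4 or 7, 4 μM dye, 40 °C, repeated shaking, readings every 10 min for four days.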

Sequence of hAM1 receptor (Q16602 23-461): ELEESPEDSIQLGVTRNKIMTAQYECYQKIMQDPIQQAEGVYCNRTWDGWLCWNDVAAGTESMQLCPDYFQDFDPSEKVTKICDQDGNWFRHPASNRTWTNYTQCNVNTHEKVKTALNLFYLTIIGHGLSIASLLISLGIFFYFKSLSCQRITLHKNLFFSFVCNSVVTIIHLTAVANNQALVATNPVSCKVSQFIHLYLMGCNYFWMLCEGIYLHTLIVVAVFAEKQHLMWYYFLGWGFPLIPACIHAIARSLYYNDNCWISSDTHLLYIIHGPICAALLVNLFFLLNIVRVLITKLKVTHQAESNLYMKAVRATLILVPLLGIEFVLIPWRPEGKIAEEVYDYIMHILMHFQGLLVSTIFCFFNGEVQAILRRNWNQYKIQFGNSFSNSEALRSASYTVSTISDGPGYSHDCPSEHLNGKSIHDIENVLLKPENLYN
Sequence of hAM1 receptor (O60895 43-175 partner): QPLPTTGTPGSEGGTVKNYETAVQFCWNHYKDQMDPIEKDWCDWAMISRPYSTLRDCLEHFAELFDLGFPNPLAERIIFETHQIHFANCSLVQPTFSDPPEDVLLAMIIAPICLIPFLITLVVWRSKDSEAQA

As for `CC[C@H](C)[C@H](NC(=O)[C@H](CCC(N)=O)NC(=O)[C@H](Cc1c[nH]cn1)NC(=O)[C@H](C)NC(=O)[C@H](CC(C)C)NC(=O)[C@H](Cc1c[nH]c2ccccc12)NC(=O)[C@H](CCC(N)=O)NC(=O)[C@@H](NC(=O)[C@@H](NC(=O)[C@@H]1CSSC[C@H](NC(=O)[C@@H](N)CCCCN)C(=O)N[C@@H](CC(N)=O)C(=O)N[C@@H]([C@@H](C)O)C(=O)N[C@@H](C)C(=O)N[C@@H]([C@@H](C)O)C(=O)N1)[C@@H](C)O)C(C)C)C(=O)N[C@@H](Cc1ccc(O)cc1)C(=O)N[C@@H](CCC(N)=O)C(=O)N[C@@H](Cc1ccccc1)C(=O)N[C@H](C(=O)N[C@@H](CC(=O)O)C(=O)N[C@@H](CCCCN)C(=O)N[C@@H](CC(=O)O)C(=O)N[C@@H](CCCCN)C(=O)N[C@@H](C)C(=O)N[C@@H](CC(N)=O)C(=O)N[C@H](C(=O)N[C@@H](C)C(=O)N1CCC[C@H]1C(=O)N1CCC[C@H]1C(=O)N[C@H](C(=O)N[C@@H](CC(N)=O)C(=O)N[C@H](C(=O)NCC(=O)N[C@@H](CO)C(=O)N[C@@H](CC(N)=O)C(=O)NCC(=O)N1C[C@H](O)C[C@H]1C(N)=O)C(C)C)[C@@H](C)O)C(C)C)[C@@H](C)O` [compound 314] (H-KCNTATCTVQWLAHQIYQFTDKDKANVAPPTNVGSNG[Hyp]-NH2; disulfide 2-7; N-terminus assumed), the EC50 on hAMY3 receptor was 0.008 nM; at hAM1 receptor, greater than 5000 nM. Also, in data set [1], the “Max ThT signal (%)” value came out at 11.900%.

Turning to `CC[C@H](C)[C@H](NC(=O)[C@H](CCC(N)=O)NC(=O)[C@H](Cc1c[nH]cn1)NC(=O)[C@H](C)NC(=O)[C@H](CC(C)C)NC(=O)[C@H](Cc1c[nH]c2ccccc12)NC(=O)[C@H](CCC(N)=O)NC(=O)[C@@H](NC(=O)[C@@H](NC(=O)[C@@H]1CSSC[C@H](NC(=O)[C@@H](N)CCCCN)C(=O)N[C@@H](CC(N)=O)C(=O)N[C@@H]([C@@H](C)O)C(=O)N[C@@H](C)C(=O)N[C@@H]([C@@H](C)O)C(=O)N1)[C@@H](C)O)C(C)C)C(=O)N[C@@H](Cc1ccc(O)cc1)C(=O)N[C@@H](CCC(N)=O)C(=O)N[C@@H](Cc1ccccc1)C(=O)N[C@H](C(=O)N[C@@H](CC(=O)O)C(=O)N[C@@H](CCCCN)C(=O)N[C@@H](CC(=O)O)C(=O)N[C@@H](CCCCN)C(=O)N[C@@H](CC(=O)O)C(=O)N[C@@H](CC(N)=O)C(=O)N[C@@H](C)C(=O)N[C@@H](C)C(=O)N1CCC[C@H]1C(=O)N1CCC[C@H]1C(=O)N[C@H](C(=O)N[C@@H](CC(N)=O)C(=O)N[C@H](C(=O)NCC(=O)N[C@@H](CO)C(=O)N[C@@H](CC(N)=O)C(=O)NCC(=O)N1C[C@H](O)C[C@H]1C(N)=O)C(C)C)[C@@H](C)O)[C@@H](C)O` [compound 315] (H-KCNTATCTVQWLAHQIYQFTDKDKDNAAPPTNVGSNG[Hyp]-NH2; disulfide 2-7; N-terminus assumed), the EC50 at hAMY3 receptor was 0.012 nM; on hAM1 receptor, greater than 5000 nM. Also, in data set [1], the “Max ThT signal (%)” value is 17.150%.

In the case of `CC[C@H](C)[C@H](NC(=O)[C@H](CCC(N)=O)NC(=O)[C@H](Cc1c[nH]cn1)NC(=O)[C@H](C)NC(=O)[C@H](CC(C)C)NC(=O)[C@H](Cc1c[nH]c2ccccc12)NC(=O)[C@H](CCC(N)=O)NC(=O)[C@@H](NC(=O)[C@@H](NC(=O)[C@@H]1CSSC[C@H](NC(=O)[C@@H](N)CCCCN)C(=O)N[C@@H](CC(N)=O)C(=O)N[C@@H]([C@@H](C)O)C(=O)N[C@@H](C)C(=O)N[C@@H]([C@@H](C)O)C(=O)N1)[C@@H](C)O)C(C)C)C(=O)N[C@@H](Cc1ccc(O)cc1)C(=O)N[C@@H](CCC(N)=O)C(=O)N[C@@H](Cc1ccccc1)C(=O)N[C@H](C(=O)N[C@@H](CC(=O)O)C(=O)N[C@@H](CCCCN)C(=O)N[C@@H](CC(=O)O)C(=O)N[C@@H](CCCCN)C(=O)N[C@@H](CC(=O)O)C(=O)N[C@@H](CC(N)=O)C(=O)N[C@H](C(=O)N[C@@H](C)C(=O)N1CCC[C@H]1C(=O)N[C@@H](C)C(=O)N[C@H](C(=O)N[C@@H](CC(N)=O)C(=O)N[C@H](C(=O)NCC(=O)N[C@@H](CO)C(=O)N[C@@H](CC(N)=O)C(=O)NCC(=O)N1C[C@H](O)C[C@H]1C(N)=O)C(C)C)[C@@H](C)O)C(C)C)[C@@H](C)O` [compound 316] (H-KCNTATCTVQWLAHQIYQFTDKDKDNVAPATNVGSNG[Hyp]-NH2; disulfide 2-7), the figures for the EC50 at hAMY3 receptor and on hAM1 receptor were 0.012 nM and greater than 5000 nM, respectively. Also, in data set [1], the “Max ThT signal (%)” value was 20.450%.

For `CC[C@H](C)[C@H](NC(=O)[C@H](CCC(N)=O)NC(=O)[C@H](Cc1c[nH]cn1)NC(=O)[C@H](C)NC(=O)[C@H](CC(C)C)NC(=O)[C@H](Cc1c[nH]c2ccccc12)NC(=O)[C@H](CCC(N)=O)NC(=O)[C@@H](NC(=O)[C@@H](NC(=O)[C@@H]1CSSC[C@H](NC(=O)[C@@H](N)CCCCN)C(=O)N[C@@H](CC(N)=O)C(=O)N[C@@H]([C@@H](C)O)C(=O)N[C@@H](C)C(=O)N[C@@H]([C@@H](C)O)C(=O)N1)[C@@H](C)O)C(C)C)C(=O)N[C@@H](Cc1ccc(O)cc1)C(=O)N[C@@H](CCC(N)=O)C(=O)N[C@@H](Cc1ccccc1)C(=O)N[C@H](C(=O)N[C@@H](CCCCN)C(=O)N[C@@H](CC(=O)O)C(=O)N[C@@H](CCCCN)C(=O)N[C@@H](CC(=O)O)C(=O)N[C@@H](CC(N)=O)C(=O)N[C@H](C(=O)N[C@@H](C)C(=O)N1CCC[C@H]1C(=O)N1CCC[C@H]1C(=O)N[C@H](C(=O)N[C@@H](CC(N)=O)C(=O)N[C@H](C(=O)NCC(=O)N[C@@H](CO)C(=O)N[C@@H](CC(N)=O)C(=O)NCC(=O)N1C[C@H](O)C[C@H]1C(N)=O)C(C)C)[C@@H](C)O)C(C)C)[C@@H](C)O` [compound 317] (H-KCNTATCTVQWLAHQIYQFTKDKDNVAPPTNVGSNG[Hyp]-NH2; disulfide 2-7; N-terminus assumed), the EC50 was 0.004 nM on hAMY3 receptor and greater than 5000 nM at hAM1 receptor. Moreover, the “Max ThT signal (%)” value in data set [1] was 5.550%.

Turning to `CC[C@H](C)[C@H](NC(=O)[C@H](CCC(N)=O)NC(=O)[C@H](Cc1c[nH]cn1)NC(=O)[C@H](C)NC(=O)[C@H](CC(C)C)NC(=O)[C@H](Cc1c[nH]c2ccccc12)NC(=O)[C@H](CCC(N)=O)NC(=O)[C@@H](NC(=O)[C@@H](NC(=O)[C@@H]1CSSC[C@H](NC(=O)[C@@H](N)CCCCN)C(=O)N[C@@H](CC(N)=O)C(=O)N[C@@H]([C@@H](C)O)C(=O)N[C@@H](C)C(=O)N[C@@H]([C@@H](C)O)C(=O)N1)[C@@H](C)O)C(C)C)C(=O)N[C@@H](Cc1ccc(O)cc1)C(=O)N[C@@H](CCC(N)=O)C(=O)N[C@@H](Cc1ccccc1)C(=O)N[C@H](C(=O)N[C@@H](CC(=O)O)C(=O)N[C@@H](CCCCN)C(=O)N[C@@H](CC(=O)O)C(=O)N[C@@H](CCCCN)C(=O)N[C@@H](CC(=O)O)C(=O)N[C@@H](CC(N)=O)C(=O)N[C@H](C(=O)N1CCC[C@H]1C(=O)N1CCC[C@H]1C(=O)N[C@H](C(=O)N[C@@H](CC(N)=O)C(=O)N[C@H](C(=O)NCC(=O)N[C@@H](CO)C(=O)N[C@@H](CC(N)=O)C(=O)NCC(=O)N1C[C@H](O)C[C@H]1C(N)=O)C(C)C)[C@@H](C)O)C(C)C)[C@@H](C)O` [compound 318] (H-KCNTATCTVQWLAHQIYQFTDKDKDNVPPTNVGSNG[Hyp]-NH2; disulfide 2-7; N-terminus assumed), the figures for the concentration giving a half-maximal response (EC50) at hAMY3 receptor and at hAM1 receptor were 0.009 nM and greater than 5000 nM, respectively. Also, the “Max ThT signal (%)” value in data set [1] worked out at 14.900%.

`CC[C@H](C)[C@H](NC(=O)[C@H](CCC(N)=O)NC(=O)[C@H](Cc1c[nH]cn1)NC(=O)[C@H](C)NC(=O)[C@H](CC(C)C)NC(=O)[C@H](Cc1c[nH]c2ccccc12)NC(=O)[C@H](CCC(N)=O)NC(=O)[C@@H](NC(=O)[C@@H](NC(=O)[C@@H]1CSSC[C@H](NC(=O)[C@@H](N)CCCCN)C(=O)N[C@@H](CC(N)=O)C(=O)N[C@@H]([C@@H](C)O)C(=O)N[C@@H](C)C(=O)N[C@@H]([C@@H](C)O)C(=O)N1)[C@@H](C)O)C(C)C)C(=O)N[C@@H](Cc1ccc(O)cc1)C(=O)N[C@@H](CCC(N)=O)C(=O)N[C@@H](Cc1ccccc1)C(=O)N[C@H](C(=O)N[C@@H](CC(=O)O)C(=O)N[C@@H](CCCCN)C(=O)N[C@@H](CC(=O)O)C(=O)N[C@@H](CCCCN)C(=O)N[C@@H](CC(=O)O)C(=O)N[C@@H](CC(N)=O)C(=O)N[C@H](C(=O)N[C@@H](C)C(=O)N1CCC[C@H]1C(=O)N[C@H](C(=O)N[C@@H](CC(N)=O)C(=O)N[C@H](C(=O)NCC(=O)N[C@@H](CO)C(=O)N[C@@H](CC(N)=O)C(=O)NCC(=O)N1C[C@H](O)C[C@H]1C(N)=O)C(C)C)[C@@H](C)O)C(C)C)[C@@H](C)O` [compound 319] (H-KCNTATCTVQWLAHQIYQFTDKDKDNVAPTNVGSNG[Hyp]-NH2; disulfide 2-7; N-terminus assumed): the EC50 at hAMY3 receptor was 0.018 nM; on hAM1 receptor it was greater than 5000 nM. In addition, the “Max ThT signal (%)” value in data set [1] is recorded as 3.900%.

Broadly, the EC50 is the concentration giving half of the maximal effect.
